For 2 compounds, IC50, inhibition and Activity results are on record in ChEMBL document CHEMBL3259546, “Chrotacumines G-J, chromone alkaloids from Dysoxylum acutangulum with osteoclast differentiation inhibitory activity” (Bioorg Med Chem Lett, 2014).

For data set [1], the system named is Osteoclast. The data set is described as follows: Inhibition of RANKL-induced osteoclast differentiation in ICR mouse bone marrow after 48 hrs by TRAP assay. It counts as functional, cell-based.
Data set [2] in a line: Cytotoxicity against ICR mouse osteoclasts by MTT assay. It counts as cell-based. To be noted: osteoclast.

For the compound `COc1cc(C(=O)O[C@@H]2CN(C)CC[C@@H]2c2c(O)cc(O)c3c(=O)cc(C)oc23)ccc1O`, in data set [1], the 50% inhibitory concentration (IC50) turned out to be 15.1 µM and the inhibition result is “Dose-dependent effect”. Also, the Activity entry in data set [2] is “Non-toxic”.

As to `COc1cc(/C=C/C(=O)O[C@@H]2CN(C)CC[C@@H]2c2c(O)cc(O)c3c(=O)cc(C)oc23)cc(OC)c1OC`, in data set [1], the half-maximal inhibitory concentration (IC50) was determined as 9.8 µM and the inhibition result is “Dose-dependent effect”. Further, the Activity result in data set [2] is “Non-toxic”.
